Test results taken from patent US20100144733A1, “Compounds, compositions and methods comprising heteroaromatic derivatives” (Institute for OneWorld Health, priority 2008, published 2010).

Target: T1, CFTR (Homo sapiens, UniProt P13569)
T1 construct: endogenous in cells; host or cells: T84 human colonic cells (ECACC)
Assay: T84 assay (FLIPR membrane potential dye, forskolin/IBMX-stimulated CFTR channel activity)
Type: cell-based
Conditions: oxadiazole-containing compounds (a series), average of at least 2 runs unless annotated n = 1, read-out: IC50
Summary of the method: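 Fluorescence from a membrane potential dye in T84 monolayers (HBSS with 10 mM Hepes) is followed each second for 150 s. Cells are exposed to test compound during the 45 min dye loading, then challenged with forskolin (10 μM) and IBMX (100 μM) to open CFTR. Inhibitors suppress the depolarization-driven fluorescence increase.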

T1 sequence (P13569 whole entry): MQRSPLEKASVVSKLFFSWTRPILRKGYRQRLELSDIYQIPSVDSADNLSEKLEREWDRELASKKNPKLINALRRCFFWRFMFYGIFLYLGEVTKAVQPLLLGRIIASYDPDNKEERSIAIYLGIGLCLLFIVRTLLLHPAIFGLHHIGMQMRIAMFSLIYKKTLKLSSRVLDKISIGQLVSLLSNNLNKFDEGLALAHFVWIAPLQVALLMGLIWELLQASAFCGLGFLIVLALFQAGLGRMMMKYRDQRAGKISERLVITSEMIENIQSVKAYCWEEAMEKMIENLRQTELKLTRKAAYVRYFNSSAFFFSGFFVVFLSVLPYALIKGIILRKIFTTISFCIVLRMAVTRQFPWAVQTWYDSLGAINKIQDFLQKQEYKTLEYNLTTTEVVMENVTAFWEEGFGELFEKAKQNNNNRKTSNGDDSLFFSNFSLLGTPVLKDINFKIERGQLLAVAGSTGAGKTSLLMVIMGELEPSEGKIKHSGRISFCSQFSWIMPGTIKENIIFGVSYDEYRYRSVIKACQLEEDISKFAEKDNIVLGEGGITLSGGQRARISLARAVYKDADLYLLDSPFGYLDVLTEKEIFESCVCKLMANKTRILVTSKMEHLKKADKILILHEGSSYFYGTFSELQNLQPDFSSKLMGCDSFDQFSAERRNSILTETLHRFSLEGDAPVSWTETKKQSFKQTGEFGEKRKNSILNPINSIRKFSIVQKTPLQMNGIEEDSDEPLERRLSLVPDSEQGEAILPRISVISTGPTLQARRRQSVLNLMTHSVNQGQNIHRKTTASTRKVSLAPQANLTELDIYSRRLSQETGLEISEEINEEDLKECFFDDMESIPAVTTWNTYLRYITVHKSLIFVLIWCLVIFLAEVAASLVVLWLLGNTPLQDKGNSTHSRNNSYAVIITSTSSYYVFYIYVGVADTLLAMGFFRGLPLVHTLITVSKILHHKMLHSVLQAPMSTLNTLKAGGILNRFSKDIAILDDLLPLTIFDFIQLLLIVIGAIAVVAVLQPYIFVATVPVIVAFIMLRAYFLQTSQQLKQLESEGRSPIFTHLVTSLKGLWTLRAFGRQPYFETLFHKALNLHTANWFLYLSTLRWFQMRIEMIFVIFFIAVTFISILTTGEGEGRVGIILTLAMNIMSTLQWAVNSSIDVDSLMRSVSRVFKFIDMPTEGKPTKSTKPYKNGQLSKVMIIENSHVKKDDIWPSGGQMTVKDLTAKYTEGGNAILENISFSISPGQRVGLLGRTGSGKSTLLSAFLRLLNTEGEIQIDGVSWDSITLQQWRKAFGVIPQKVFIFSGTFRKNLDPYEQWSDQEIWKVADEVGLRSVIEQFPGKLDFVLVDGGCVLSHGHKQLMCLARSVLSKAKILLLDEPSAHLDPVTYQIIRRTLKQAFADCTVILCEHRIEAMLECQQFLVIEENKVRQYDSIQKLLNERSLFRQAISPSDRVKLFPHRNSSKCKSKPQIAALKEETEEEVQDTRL

| Structure (SMILES) | IC50 |
| --- | --- |
| O=C(NCc1cccc(Oc2ccccc2)c1)c1nc(-c2cc(Cl)c(O)c(Cl)c2)no1 [145a, 3-(3,5-dichloro-4-hydroxyphenyl)-N-(3-phenoxybenzyl)-1,2,4-oxadiazole-5-carboxamide] | 9.87 µM |
| O=C(NCc1ccc(F)c(C(F)(F)F)c1)c1nc(-c2cc(Cl)c(O)c(Cl)c2)no1 [146a, 3-(3,5-dichloro-4-hydroxyphenyl)-N-(4-fluoro-3-(trifluoromethyl)benzyl)-1,2,4-oxadiazole-5-carboxamide] | 11.2 µM |
| O=C(NCc1cccc(-c2ncccn2)c1)c1nc(-c2cc(Cl)c(O)c(Cl)c2)no1 [147a, 3-(3,5-dichloro-4-hydroxyphenyl)-N-(3-(pyrimidin-2-yl)benzyl)-1,2,4-oxadiazole-5-carboxamide] | 29.9 µM |
| CN(Cc1ccc(C(C)(C)C)cc1)C(=O)c1nc(-c2cc(Cl)c(O)c(Cl)c2)no1 [148a, N-(4-tert-butylbenzyl)-3-(3,5-dichloro-4-hydroxyphenyl)-N-methyl-1,2,4-oxadiazole-5-carboxamide] | 8.26 µM |
| CC(NC(=O)c1nc(-c2cc(Cl)c(O)c(Cl)c2)no1)c1ccc(Cl)cc1 (stereo not drawn) [149a, N-(1-(4-chlorophenyl)ethyl)-3-(3,5-dichloro-4-hydroxyphenyl)-1,2,4-oxadiazole-5-carboxamide] | 6.7 µM |
| CCc1ccc(CN(C)C(=O)c2nc(-c3cc(Cl)c(O)c(Cl)c3)no2)cc1 [150a, 3-(3,5-dichloro-4-hydroxyphenyl)-N-(4-ethylbenzyl)-N-methyl-1,2,4-oxadiazole-5-carboxamide] | 6.25 µM |
| CC(C)(C)C(=O)CN(Cc1ccccc1)C(=O)c1nc(-c2cc(Cl)c(O)c(Cl)c2)no1 [151a, N-benzyl-3-(3,5-dichloro-4-hydroxyphenyl)-N-(3,3-dimethyl-2-oxobutyl)-1,2,4-oxadiazole-5-carboxamide] | 6.24 µM |
| CC(C)(C)C(=O)CN(Cc1ccc(F)c(F)c1)C(=O)c1nc(-c2cc(Cl)c(O)c(Cl)c2)no1 [152a, 3-(3,5-dichloro-4-hydroxyphenyl)-N-(3,4-difluorobenzyl)-N-(3,3-dimethyl-2-oxobutyl)-1,2,4-oxadiazole-5-carboxamide] | 8.88 µM |
| O=C(NCc1ccc(OCc2ccccc2)cc1)c1nc(-c2cc(Cl)c(O)c(Cl)c2)no1 [153a, N-(4-(benzyloxy)benzyl)-3-(3,5-dichloro-4-hydroxyphenyl)-1,2,4-oxadiazole-5-carboxamide] | 2.99 µM |
| O=C(NCc1cc(F)cc(C(F)(F)F)c1)c1nc(-c2cc(Cl)c(O)c(Cl)c2)no1 [154a, 3-(3,5-dichloro-4-hydroxyphenyl)-N-(3-fluoro-5-(trifluoromethyl)benzyl)-1,2,4-oxadiazole-5-carboxamide] | 3.89 µM |
| O=C(NCc1cc(C(F)(F)F)ccc1F)c1noc(-c2cc(Cl)c(O)c(Cl)c2)n1 [155a, 5-(3,5-dichloro-4-hydroxyphenyl)-N-(2-fluoro-5-(trifluoromethyl)benzyl)-1,2,4-oxadiazole-3-carboxamide] | 2.22 µM |
| O=C(NCc1ccc(Cn2cccn2)cc1)c1noc(-c2cc(Cl)c(O)c(Cl)c2)n1 [156a, N-(4-((1H-pyrazol-1-yl)methyl)benzyl)-5-(3,5-dichloro-4-hydroxyphenyl)-1,2,4-oxadiazole-3-carboxamide] | 20.9 µM |
| O=C(NCc1cccc(N2CCCCC2)c1)c1noc(-c2cc(Cl)c(O)c(Cl)c2)n1 [157a, 5-(3,5-dichloro-4-hydroxyphenyl)-N-(3-(piperidin-1-yl)benzyl)-1,2,4-oxadiazole-3-carboxamide] | 3.33 µM |
| CN(C)c1ccc(CNC(=O)c2noc(-c3cc(Cl)c(O)c(Cl)c3)n2)cc1 [158a, 5-(3,5-dichloro-4-hydroxyphenyl)-N-(4-(dimethylamino)benzyl)-1,2,4-oxadiazole-3-carboxamide] | 17.5 µM |
| O=C(NCc1ccc(F)c(C(F)(F)F)c1)c1noc(-c2cc(Cl)c(O)c(Cl)c2)n1 [159a, 5-(3,5-dichloro-4-hydroxyphenyl)-N-(4-fluoro-3-(trifluoromethyl)benzyl)-1,2,4-oxadiazole-3-carboxamide] | 4.83 µM |
| CN(C)c1cccc(CNC(=O)c2noc(-c3cc(Cl)c(O)c(Cl)c3)n2)c1 [160a, 5-(3,5-dichloro-4-hydroxyphenyl)-N-(3-(dimethylamino)benzyl)-1,2,4-oxadiazole-3-carboxamide] | 7.26 µM |
| O=C(NCc1cccc(-n2cccn2)c1)c1noc(-c2cc(Cl)c(O)c(Cl)c2)n1 [161a, N-(3-(1H-pyrazol-1-yl)benzyl)-5-(3,5-dichloro-4-hydroxyphenyl)-1,2,4-oxadiazole-3-carboxamide] | 6.21 µM |
| O=C(c1nc(-c2cc(Cl)c(O)c(Cl)c2)no1)N(Cc1cccnc1)Cc1cccnc1 [162a, 3-(3,5-dichloro-4-hydroxyphenyl)-N,N-bis(pyridin-3-ylmethyl)-1,2,4-oxadiazole-5-carboxamide] | 9.24 µM |
| O=C(NCc1cccc(OC(F)F)c1)c1noc(-c2cc(Cl)c(O)c(Cl)c2)n1 [163a, 5-(3,5-dichloro-4-hydroxyphenyl)-N-(3-(difluoromethoxy)benzyl)-1,2,4-oxadiazole-3-carboxamide] | 11.5 µM |
| CC(C)(C)C(=O)CN(Cc1cccc(OC(F)(F)F)c1)C(=O)c1nc(-c2cc(Cl)c(O)c(Cl)c2)no1 [164a, 3-(3,5-dichloro-4-hydroxyphenyl)-N-(3,3-dimethyl-2-oxobutyl)-N-(3-(trifluoromethoxy)benzyl)-1,2,4-oxadiazole-5-carboxamide] | 12.9 µM |
| CC(C)(C)C(=O)CN(Cc1ccc(Oc2ccccc2)cc1)C(=O)c1nc(-c2cc(Cl)c(O)c(Cl)c2)no1 [165a, 3-(3,5-dichloro-4-hydroxyphenyl)-N-(3,3-dimethyl-2-oxobutyl)-N-(4-phenoxybenzyl)-1,2,4-oxadiazole-5-carboxamide] | 11.5 µM |
| O=C(NCc1ccc(N2CCCCC2)cc1)c1nc(-c2cc(Cl)c(O)c(Cl)c2)no1 [166a, 3-(3,5-dichloro-4-hydroxyphenyl)-N-(4-(piperidin-1-yl)benzyl)-1,2,4-oxadiazole-5-carboxamide] | 6.21 µM |
| O=C(c1nc(-c2cc(Cl)c(O)c(Cl)c2)no1)N(Cc1ccccc1)Cc1cccnc1 [167a, N-benzyl-3-(3,5-dichloro-4-hydroxyphenyl)-N-(pyridin-3-ylmethyl)-1,2,4-oxadiazole-5-carboxamide] | 9.61 µM |
| O=C(c1nc(-c2cc(Cl)c(O)c(Cl)c2)no1)N(Cc1ccc(Oc2ccccc2)cc1)Cc1cccnc1 [168a, 3-(3,5-dichloro-4-hydroxyphenyl)-N-(4-phenoxybenzyl)-N-(pyridin-3-ylmethyl)-1,2,4-oxadiazole-5-carboxamide] | 2.11 µM |
| C=CCN(Cc1cccc(OC(F)(F)F)c1)C(=O)c1nc(-c2cc(Cl)c(O)c(Cl)c2)no1 [169a, N-allyl-3-(3,5-dichloro-4-hydroxyphenyl)-N-(3-(trifluoromethoxy)benzyl)-1,2,4-oxadiazole-5-carboxamide] | 2.95 µM |
| C=CCN(Cc1ccc(F)c(F)c1)C(=O)c1nc(-c2cc(Cl)c(O)c(Cl)c2)no1 [170a, N-allyl-3-(3,5-dichloro-4-hydroxyphenyl)-N-(3,4-difluorobenzyl)-1,2,4-oxadiazole-5-carboxamide] | 3.62 µM |
| O=C(NCc1ccc(Oc2ccc(F)cc2)cc1)c1nc(-c2cc(Cl)c(O)c(Cl)c2)no1 [171a, 3-(3,5-dichloro-4-hydroxyphenyl)-N-(4-(4-fluorophenoxy)benzyl)-1,2,4-oxadiazole-5-carboxamide] | 7.44 µM |
